Laboratory results: PubChem BioAssay AID248 (DTP/NCI, 2004)
Where “and” joins values, the source holds several entries; their conditions need not be identical. Identical values can stand only once. Toxic doses and inconclusive results are not listed. Rule as the data show it: active = T/C of 150% or more; inactive = T/C below 125%.

Test system: L1210 leukemia ip in BDF1 mice, survival T/C
Assay: NCI In Vivo Anticancer Drug Screen. Data for tumor model L1210 Leukemia (intraperitoneal) in B6D2F1 (BDF1) mice
Conditions: endpoint: mean survival time, higher = longer survival
Method in brief: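 Tumor was transplanted into mice, which were then dosed with test compound or vehicle alone. Survival was recorded for each group, and the treated figure was expressed relative to the control figure.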

[1] = dose: 50.0 mg/kg/injection, schedule: Q01DX009 (ip), vehicle: Klucel (hydroxypropylcellulose) (HPC)
[2] = dose: 50.0 mg/kg/injection, schedule: Q01DX009 (ip), vehicle: water
[3] = dose: 100.0 mg/kg/injection, schedule: Q01DX001 (ip), vehicle: Klucel (hydroxypropylcellulose) (HPC)
[4] = dose: 100.0 mg/kg/injection, schedule: Q01DX009 (ip), vehicle: Klucel (hydroxypropylcellulose) (HPC)
[5] = dose: 100.0 mg/kg/injection, schedule: Q01DX009 (ip), vehicle: water
[6] = dose: 100.0 mg/kg/injection, schedule: Q04DX003 (ip), vehicle: Klucel (hydroxypropylcellulose) (HPC)
[7] = dose: 200.0 mg/kg/injection, schedule: Q01DX001 (ip), vehicle: Klucel (hydroxypropylcellulose) (HPC)
[8] = dose: 200.0 mg/kg/injection, schedule: Q04DX003 (ip), vehicle: Klucel (hydroxypropylcellulose) (HPC)
[9] = dose: 400.0 mg/kg/injection, schedule: Q01DX001 (ip), vehicle: Klucel (hydroxypropylcellulose) (HPC)
[10] = dose: 400.0 mg/kg/injection, schedule: Q04DX003 (ip), vehicle: Klucel (hydroxypropylcellulose) (HPC)
[11] = dose: 200.0 mg/kg/injection, schedule: Q01DX009 (ip), vehicle: Klucel (hydroxypropylcellulose) (HPC)
[12] = dose: 400.0 mg/kg/injection, schedule: Q01DX009 (ip), vehicle: Klucel (hydroxypropylcellulose) (HPC)
[13] = dose: 100.0 mg/kg/injection, schedule: Q04DX003 (ip), vehicle: saline
[14] = dose: 200.0 mg/kg/injection, schedule: Q04DX003 (ip), vehicle: saline
[15] = dose: 100.0 mg/kg/injection, schedule: Q01DX001 (ip), vehicle: saline
[16] = dose: 200.0 mg/kg/injection, schedule: Q01DX001 (ip), vehicle: saline
[17] = dose: 400.0 mg/kg/injection, schedule: Q01DX001 (ip), vehicle: saline

Measured: T/C

CCN(CC)/N=N/c1nc[nH]c1C(N)=O
inactive: dose: 12.5 mg/kg/injection, schedule: Q01DX009 (ip), vehicle: water 100 % of control | dose: 25.0 mg/kg/injection, schedule: Q01DX009 (ip), vehicle: Klucel (hydroxypropylcellulose) (HPC) 117 % of control | dose: 25.0 mg/kg/injection, schedule: Q01DX009 (ip), vehicle: water 101 % of control | dose: 50.0 mg/kg/injection, schedule: Q01DX001 (ip), vehicle: water 102 % of control | [1] 111 % of control | [2] 98 % of control and 104 % of control | dose: 50.0 mg/kg/injection, schedule: Q04DX003 (ip), vehicle: water 101 % of control | [3] 104 % of control | dose: 100.0 mg/kg/injection, schedule: Q01DX001 (ip), vehicle: water 103 % of control | [4] 114 % of control | [5] 105 % of control and 86 % of control | [6] 102 % of control | dose: 100.0 mg/kg/injection, schedule: Q04DX003 (ip), vehicle: water 102 % of control | [7] 101 % of control | dose: 200.0 mg/kg/injection, schedule: Q01DX001 (ip), vehicle: water 100 % of control | [8] 108 % of control | dose: 200.0 mg/kg/injection, schedule: Q04DX003 (ip), vehicle: water 110 % of control | [9] 113 % of control | dose: 400.0 mg/kg/injection, schedule: Q01DX001 (ip), vehicle: water 113 % of control | [10] 119 % of control | dose: 400.0 mg/kg/injection, schedule: Q04DX003 (ip), vehicle: water 111 % of control

O=C(Nc1ccccc1F)C(c1ccccc1)c1ccccc1
inactive: [4] 103 % of control | [6] 96 % of control | [11] 93 % of control | [8] 95 % of control | [12] 94 % of control | [10] 95 % of control

O=[N+]([O-])CC(O)c1ccc2ccccc2n1 (centres undefined)
inactive: [2] 100 % of control | dose: 100.0 mg/kg/injection, schedule: Q01DX009 (ip), vehicle: saline 91 % of control | [5] 100 % of control | [13] 93 % of control | dose: 200.0 mg/kg/injection, schedule: Q01DX009 (ip), vehicle: saline 94 % of control | dose: 200.0 mg/kg/injection, schedule: Q01DX009 (ip), vehicle: water 87 % of control | [14] 90 % of control

Cc1c2oc3c(C)ccc(C(=O)OCCN4CCCC4)c3nc-2c(C(=O)OCCN2CCCC2)c(N)c1=O
inactive: dose: 100.0 mg/kg/injection, schedule: Q04DX002 (ip), vehicle: saline with Tween-80 98 % of control | dose: 200.0 mg/kg/injection, schedule: Q04DX002 (ip), vehicle: saline with Tween-80 106 % of control | dose: 400.0 mg/kg/injection, schedule: Q04DX002 (ip), vehicle: saline with Tween-80 98 % of control

CCOC(=O)C1(c2cc(NS(=O)(=O)c3ccccc3)ccc2O)CCCCC1=O (centres undefined)
inactive: dose: 50.0 mg/kg/injection, schedule: Q01DX001 (ip), vehicle: saline sonified 97 % of control | dose: 100.0 mg/kg/injection, schedule: Q01DX001 (ip), vehicle: saline sonified 93 % of control | dose: 200.0 mg/kg/injection, schedule: Q01DX001 (ip), vehicle: saline sonified 94 % of control

O=C(O)Cc1c(O)ccc2ccccc12
inactive: dose: 100.0 mg/kg/injection, schedule: Q01DX009 (ip), vehicle: gum acacia 92 % of control | dose: 100.0 mg/kg/injection, schedule: Q04DX003 (ip), vehicle: gum acacia 97 % of control | dose: 200.0 mg/kg/injection, schedule: Q01DX009 (ip), vehicle: gum acacia 90 % of control | dose: 200.0 mg/kg/injection, schedule: Q04DX003 (ip), vehicle: gum acacia 92 % of control | dose: 400.0 mg/kg/injection, schedule: Q01DX009 (ip), vehicle: gum acacia 98 % of control | dose: 400.0 mg/kg/injection, schedule: Q04DX003 (ip), vehicle: gum acacia 90 % of control

CCCCCCCCCCCCCCCC(=O)N(CCCN)CCCN(CCCN)C(=O)CCCCCCCCCCCCCCC
inactive: [13] 98 % of control

CCCCc1cccc2c1OCO2
inactive: [15] 103 % of control | [16] 103 % of control

N#C/C(=C\c1cccs1)c1ccc([N+](=O)[O-])cc1
inactive: [4] 96 % of control | [11] 86 % of control | [12] 91 % of control

CNC1C(O)C2CCC(C2)C1c1ccccc1 (centres undefined)
inactive: dose: 75.0 mg/kg/injection, schedule: Q01DX001 (ip), vehicle: Klucel (hydroxypropylcellulose) (HPC) 96 % of control | dose: 150.0 mg/kg/injection, schedule: Q01DX001 (ip), vehicle: Klucel (hydroxypropylcellulose) (HPC) 105 % of control | dose: 300.0 mg/kg/injection, schedule: Q01DX001 (ip), vehicle: Klucel (hydroxypropylcellulose) (HPC) 98 % of control

CNC(C)Cc1ccccc1OC (centres undefined)
inactive: dose: 25.0 mg/kg/injection, schedule: Q04DX003 (ip), vehicle: saline 103 % of control | dose: 50.0 mg/kg/injection, schedule: Q04DX003 (ip), vehicle: saline 101 % of control | [13] 92 % of control

COC(=O)C1C2C=CC(C2=C(C)C)C1C(=O)OC (centres undefined)
inactive: dose: 50.0 mg/kg/injection, schedule: Q04DX003 (ip), vehicle: Klucel (hydroxypropylcellulose) (HPC) 100 % of control | [3] 92 % of control | [6] 98 % of control | [7] 96 % of control | [8] 94 % of control | [9] 91 % of control

NC(=S)N/N=C\c1ncnc2ccccc12
inactive: dose: 2.1 mg/kg/injection, schedule: Q03HX032 (ip), vehicle: saline with Tween-80 101 % of control | dose: 3.2 mg/kg/injection, schedule: Q03HX032 (ip), vehicle: saline with Tween-80 107 % of control | dose: 4.8 mg/kg/injection, schedule: Q03HX032 (ip), vehicle: saline with Tween-80 118 % of control | dose: 6.25 mg/kg/injection, schedule: Q01DX009 (ip), vehicle: saline 115 % of control | dose: 7.2 mg/kg/injection, schedule: Q03HX032 (ip), vehicle: saline with Tween-80 91 % of control | dose: 50.0 mg/kg/injection, schedule: Q01DX001 (ip), vehicle: saline 100 % of control | dose: 50.0 mg/kg/injection, schedule: Q01DX009 (ip), vehicle: saline 117 % of control | [15] 112 % of control | [16] 118 % of control | [17] 112 % of control

CC1(C)N=C(c2ccccc2)C(c2ccccc2)=N1
inactive: [4] 105 % of control | [6] 108 % of control | [11] 98 % of control | [8] 97 % of control | [10] 115 % of control

O=S(=O)(Nc1nccs1)c1ccc(N(CCCl)CCCl)cc1
inactive: [1] 116 % of control

O=S1(=O)CC2(N3CCCC3)CCCCC21 (centres undefined)
inactive: dose: 75.0 mg/kg/injection, schedule: Q01DX001 (ip), vehicle: saline 98 % of control | dose: 150.0 mg/kg/injection, schedule: Q01DX001 (ip), vehicle: saline 100 % of control | dose: 300.0 mg/kg/injection, schedule: Q01DX001 (ip), vehicle: saline 100 % of control

C=CC(=O)N(C)OC
inactive: [15] 101 % of control | [13] 100 % of control | [16] 96 % of control | [14] 104 % of control | [17] 112 % of control | dose: 400.0 mg/kg/injection, schedule: Q04DX003 (ip), vehicle: saline 98 % of control
